Results on five molecules are retold here after patent publication US7871793B2, “Antimicrobial carbohydrates and methods of using same” (Burnham Institute for Medical Research, priority 2004, dated 2011).

The test system of test [1] is H. pylori infection. To be noted: patients; cited from earlier work.
The test system of test [2] is H. pylori (ATCC43504). The test can be described thus: Cultivation of H. pylori in the presence or absence of cholesterol. Type of test: cell-based, Helicobacter pylori. The conditions noted are these: Ham's F-12 with 0.005% cholesterol, 5 days.
The test system of test [3] is Helicobacter pylori (ATCC43504). The test can be described thus: Cell growth assay of H. pylori (microbroth dilution, OD 600 nm). Type of test: cell-based. The conditions noted are these: ATCC43504, Brucella broth, 96-well plate, 35° C., 15% CO2, 4 days, OD600.
Test [4] concerns UDP-Glc:sterol glucosyltransferase. The test can be described thus: In vitro synthesis of CGL from UDP-Glc and cholesterol by sonicated H. pylori. Type of test: biochemical, Helicobacter pylori. The conditions noted are these: 5.0 mU in 100 μl reaction (50.0 mU/ml), 30° C., 3 hours.
The subject of test [5] is H. pylori. Nature of the test: Cell motility assay (time-lapse confocal images). To be noted: 31.2 mU/ml or same protein concentration, 3 days, mean±SD. Type of test: cell-based, Helicobacter pylori.

On to `Cc1ncc([N+](=O)[O-])n1CCO` [metronidazole], for which the eradication rate entry in test [1] is on record as “less than 10%”.

With `CC1(C)S[C@@H]2[C@H](NC(=O)[C@H](N)c3ccc(O)cc3)C(=O)N2[C@H]1C(=O)O` [amoxicillin], the eradication rate entry in test [1] is recorded as “less than 20%”.

As for `CC[C@H]1OC(=O)[C@H](C)[C@@H](O[C@H]2C[C@@](C)(OC)[C@@H](O)[C@H](C)O2)[C@H](C)[C@@H](O[C@@H]2O[C@H](C)C[C@H](N(C)C)[C@H]2O)[C@](C)(OC)C[C@@H](C)C(=O)[C@H](C)[C@@H](O)[C@]1(C)O` [clarithromycin], the eradication rate result in test [1] is reported as “about 40%”.

Take `CC(C)CCC[C@@H](C)[C@H]1CC[C@H]2[C@@H]3CC=C4C[C@@H](O)CC[C@]4(C)[C@H]3CC[C@]12C` [cholesterol]: in test [2], the morphology result is recorded as “normal” and the motility result is on record as “good”. Besides, the CFU/ml in test [2] (35° C.) is listed as 1 × 10^8 CFU/ml.

B1: CD43 free of a GlcNAcα residue: control soluble CD43 produced without α4GnT cDNA; side chain Galβ1→4GlcNAcβ1→6(Galβ1→3)GalNAcα→Ser/Thr (protein, UniProt P16150 20-253, looked up)
extracellular domain: STTAVQTPTSGEPLVSTSEPLSSKMYTTSITSDPKADSTGDQTSALPPSTSINEGSPLWTSIGASTGSPLPEPTTYQEVSIKMSSVPQETPHATSHPAVPITANSLGSHTVTGGTITTNSPETSSRTSGAPVTTAASSLETSRGTSGPPLTMATVSLETSKGTSGPPVTMATDSLETSTGTTGPPVTMTTGSLEPSSGASGPQVSSVKLSTMMSPTTSTNASTVPFRNPDENSR
modifications: extracellular domain core2 O-glycans lacking terminal GlcNAc
notes: control soluble CD43 produced without α4GnT cDNA; side chain Galβ1→4GlcNAcβ1→6(Galβ1→3)GalNAcα→Ser/Thr
As for B1, in test [3], the “growth of H. pylori” value is on record as “drastic growth”. For the same molecule, the “peak of CGL at m/z 571.6 in products of sonicated H. pylori” value in test [4] is “a peak of CGL was detected”. Besides, the “mean velocity of seven H. pylori” value in test [5] was 21.1±2.6 μm/sec; in test [5] (listed as αGlcNAc (−)) it was 21.2±2.6 μm/sec.
